Experimental findings from US6525045B2, “Positive allosteric AMPA receptor modulators” (Boehringer Ingelheim Pharma KG, priority 2000, dated 2003) are described below.

One series relates to AMPA receptors. As to the kind of experiment: Electrophysiological measurement of intensification of the agonist-induced current on cells expressing functional AMPA receptors. The format is cell-based. Further details: key: + good; ++ very good activity. As to conditions: concentrations between 0.3 μmol and 300 μmol. The protocol:
Particular mention should be made of those applications in which the positive modulation of AMPA receptors plays a part. The effect of the compounds according to the invention as AMPA receptor modulators was measured electrophysiologically on cells which express functional AMPA receptors. Investigations were carried out to see whether the test substances have a positive allosteric influence on the agonist-induced current.
The test was carried out at concentrations of between 0.3 μmol and 300 μmol.
In the case of “6-chloro-4-methyl-4,5-dihydro-1.3-dithia-4-aza-acenaphthylene 3.3-dioxide [Example 5]”, the “Effectiveness: Intensification of the agonist-induced current” value (shortened to “Effectiveness: Intensification”) is “+”. For `CN1Cc2cccc3scc(c23)S1(=O)=O` [Example 1, 4-methyl-4,5-dihydro-1,3-dithia-4-aza-acenaphthylene 3,3-dioxide], the “Effectiveness: Intensification” value is given as “++”. As for `CCN1Cc2cccc3scc(c23)S1(=O)=O` [Example 2, 4-ethyl-4.5-dihydro-1,3-dithia-4-aza-acenaphthylene 3,3-dioxide], the “Effectiveness: Intensification” value is “+”. Same read-out and setting: the value for `CN1Cc2ccc(Cl)c3scc(c23)S1(=O)=O` [Example 3, 8-chloro-4-methyl-4,5-dihydro-1,3-dithia-4-aza-acenaphthylene 3,3-dioxide] was “+”; that for `CN1Cc2c(F)ccc3scc(c23)S1(=O)=O` [Example 4, 6-fluoro-4-methyl-4,5-dihydro-1,3-dithia-4-aza-acenaphthylene 3,3-dioxide] was “++”.

Tested on in a further series: not given
Assay: not given
Conditions: not given
Consider `CN1Cc2c(Br)ccc3scc(c23)S1(=O)=O` [Example 11, 6-bromo-4-methyl-4,5-dihydro-1,3-dithia-4-aza-acenaphthylene-3,3-dioxide], for which the melting point turned out to be 203 °C. Still for that read-out and setting: the value for `CN1Cc2c(C#N)ccc3scc(c23)S1(=O)=O` [Example 16, 4-methyl-3,3-dioxo-4,5-dihydro-3H-1,3-dithia-4-aza-acenaphthylene-6-carbonitrile] was 238 °C.
